Source: PubChem BioAssay (NCI)
Where “and” joins values, the source holds several entries; their conditions need not be identical. Equal entries are not always repeated.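 Grown in 96-well plates, cells were treated for 48 hours with each compound at five concentrations. Insufficient inhibition: endpoint recorded as highest concentration tested. At the GI50, growth is halved. The concentration for full growth arrest is given as TGI.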

Experiments:
Experiment in all cases: NCI tumour cell line growth inhibition, 48 h
BT-549 breast = tested on: BT-549 breast
HCT-15 colon = tested on: HCT-15 colon
HS 578T breast = tested on: HS 578T breast
K-562 leukemia = tested on: K-562 leukemia
MOLT-4 leukemia = tested on: MOLT-4 leukemia
NCI-H23 lung = tested on: NCI-H23 lung
NCI-H460 lung = tested on: NCI-H460 lung
PC-3 prostate = tested on: PC-3 prostate
RPMI-8226 leukemia = tested on: RPMI-8226 leukemia
TK-10 renal = tested on: TK-10 renal

| SMILES | GI50 (BT-549 breast) | TGI (BT-549 breast) | GI50 (HCT-15 colon) | TGI (HCT-15 colon) | GI50 (HS 578T breast) | TGI (HS 578T breast) | GI50 (K-562 leukemia) | TGI (K-562 leukemia) | GI50 (MOLT-4 leukemia) | TGI (MOLT-4 leukemia) | GI50 (NCI-H23 lung) | TGI (NCI-H23 lung) | GI50 (NCI-H460 lung) | TGI (NCI-H460 lung) | GI50 (PC-3 prostate) | TGI (PC-3 prostate) | GI50 (RPMI-8226 leukemia) | TGI (RPMI-8226 leukemia) | GI50 (TK-10 renal) | TGI (TK-10 renal) |
| --- | --- | --- | --- | --- | --- | --- | --- | --- | --- | --- | --- | --- | --- | --- | --- | --- | --- | --- | --- | --- |
| Cn1cc(C2=C(c3cccc(Cl)c3)C(=O)NC2=O)c2ccccc21 | > 25 µM | > 25 µM | > 25 µM | > 25 µM | 7.28 µM | > 25 µM | 12.6 µM | > 25 µM | 15.8 µM | > 25 µM | > 25 µM | > 25 µM | > 22.7 µM | > 25 µM | 18.3 µM | > 25 µM | > 25 µM | > 25 µM | 13.4 µM | > 25 µM |
| COC(=O)C12CC(NC(=O)c3csc([C@@H](C[C@H](C(C)C)N(C)C(=O)[C@@H](NC(=O)[C@H]4CCCCN4C)C(C)C)OC(C)=O)n3)(C1)C2 | 0.00439 µM and 0.00341 µM | 0.0939 µM and 0.33 µM | 0.0145 µM and 0.00801 µM | > 33.3 µM | 0.00333 µM | > 33.3 µM | 0.000513 µM and 0.00333 µM | > 33.3 µM | 0.00688 µM and 0.00333 µM | > 33.3 µM | 0.0104 µM and 0.00333 µM | > 33.3 µM | 0.00298 µM and 0.00333 µM | > 33.3 µM | 0.00639 µM and 0.00333 µM | > 33.3 µM | 0.00131 µM and 0.00333 µM | > 33.3 µM | 0.379 µM | > 33.3 µM |
| C=CCN1C(=O)C/C(=C2/CCC(=O)N2CC=C)C1=O |  |  |  | > 100 µM |  |  |  | > 100 µM |  | > 100 µM |  | > 100 µM |  | > 100 µM |  |  |  |  |  | > 100 µM |
| O=C(c1nc2ccccc2[nH]1)C1C(c2cccc([N+](=O)[O-])c2)C2CC3CCCCC3N2[C@@]12C(=O)Nc1cc(Cl)ccc12 (stereo partly drawn) | 1.77 µM | 4.36 µM |  |  | 1.63 µM | 4.41 µM | 2.6 µM | > 100 µM | 2.38 µM | 10.1 µM | 2.37 µM | 5.89 µM |  |  | 1.3 µM | 4.4 µM | 1.71 µM | 5.6 µM | 2.12 µM | 4.91 µM |
| Cc1c(-c2ccnc(N)n2)c2c(n1-c1ccccc1)C(=O)c1ccccc1C2=O | 6.3 µM | 29.9 µM | 16 µM | > 100 µM | 22.4 µM | 60.8 µM | 3.78 µM | 25.5 µM |  |  |  |  | 17.6 µM | 60 µM | > 100 µM | > 100 µM | > 100 µM | > 100 µM | 20.2 µM | 63.3 µM |
| Cc1ccc(S(=O)(=O)N/N=C/CN2C(=O)c3ccccc3C2=O)cc1 |  |  |  | > 100 µM |  |  |  | > 100 µM |  | > 100 µM |  | > 100 µM |  | > 100 µM |  |  |  | > 100 µM |  | > 100 µM |
| O=C(/C=C/c1ccc(OCCCOc2ccc(/C=C/C(=O)c3ccc(Cl)cc3)cc2)cc1)c1ccc(Cl)cc1 |  |  |  | > 100 µM |  |  |  | > 100 µM |  | > 100 µM |  | > 100 µM |  | > 100 µM |  |  |  | > 100 µM |  | > 100 µM |
| CCc1cc2c(c3[nH]ccc13)[C@@H](C)C[C@H]2C |  |  |  | 30.9 µM |  |  |  | 45 µM |  | 38.2 µM |  | 37.8 µM |  | 29.4 µM |  |  |  | 46 µM |  | 36.8 µM |
| CC(C(=O)C(C)O[Si](c1ccccc1)(c1ccccc1)C(C)(C)C)=P(c1ccccc1)(c1ccccc1)c1ccccc1 (stereo not drawn) |  |  |  | 18.8 µM |  |  |  | 12.3 µM |  | 13.5 µM |  | 15.5 µM |  | 13.4 µM |  |  |  | 6.58 µM |  | 16.9 µM |
| COc1cccc(C2N3CCCCC3[C@@H]3c4[nH]c5ccccc5c4CCN23)c1OC (stereo partly drawn) |  |  |  | 30.8 µM |  |  |  | 30.1 µM |  | 36.6 µM |  | 30.6 µM |  | 36.3 µM |  |  |  | 42.7 µM |  | 33.4 µM |
| CC(C)N(C(=O)C12C3C4C5C3C1(C(=O)N(C(C)C)C(C)C)C5C42)C(C)C (stereo not drawn) |  |  |  | > 100 µM |  |  |  | > 61.5 µM |  | > 100 µM |  | > 100 µM |  | > 100 µM |  |  |  | > 64.4 µM |  | > 100 µM |
| Clc1cc(-c2csc(Cl)c2)cs1 |  |  |  | > 100 µM |  | > 100 µM |  |  |  | > 100 µM |  | > 100 µM |  | > 100 µM |  | > 100 µM |  | > 100 µM |  | > 100 µM |
| Cc1nc(=O)n2c(c1C(=O)Nc1ccc(Cl)cc1)NCCC2 |  |  |  | > 100 µM |  |  |  | > 100 µM |  | > 100 µM |  | > 100 µM |  | > 100 µM |  |  |  | > 100 µM |  | > 100 µM |
| O=C1CCC(=O)C(C(=O)CCC(=O)Nc2ccc(Cl)cc2)C1 (stereo not drawn) |  |  |  | > 100 µM |  |  |  | > 100 µM |  | > 100 µM |  | > 100 µM |  | > 100 µM |  |  |  | > 100 µM |  | > 100 µM |
| COc1ccc(CN[C@H]2CCc3cc(OC)c(OC)c(OC)c3-c3ccc(SC)c(=O)cc32)c(OC)c1OC |  |  |  | 0.0938 µM |  |  | < 0.01 µM | 1.35 µM |  | > 100 µM | < 0.01 µM | 0.058 µM and 0.0396 µM |  | 0.0767 µM |  |  | 0.0254 µM | 31.5 µM |  | > 100 µM |
| CCC[CH2][Sn]1([CH2]CCC)[O]N=Cc2ccccc2[O]1 |  |  | 0.808 µM | 2.04 µM |  |  | 0.192 µM | 1.33 µM | 0.335 µM | 1.9 µM | 0.413 µM | 1.68 µM | 1.44 µM | 2.76 µM |  |  | 0.231 µM | 0.848 µM | 0.555 µM | 1.72 µM |
| CC1CCCc2c(CC3CC(=O)NC(=O)C3)nc(N)nc21 (stereo not drawn) |  | > 100 µM |  | > 100 µM |  |  |  | > 100 µM |  | > 100 µM |  | > 100 µM |  |  |  | > 100 µM |  | > 100 µM |  | > 100 µM |
| COC(=O)C([O][Ge]([CH3])([CH3])[CH3])c1ccccc1 (stereo not drawn) |  |  | > 100 µM | > 100 µM |  |  | > 100 µM | > 100 µM | > 100 µM | > 100 µM | > 100 µM | > 100 µM | > 100 µM | > 100 µM |  |  |  |  | > 100 µM | > 100 µM |
| CC1(C)CC(=O)C=C(NC(=O)c2ccccc2)C1 |  |  |  | > 100 µM |  |  |  | > 100 µM |  | > 100 µM |  | > 100 µM |  | > 100 µM |  |  |  | > 100 µM |  | > 100 µM |
